According to patent US20120082626A1, “USE OF R-BAMBUTEROL AS INHALED MEDICAMENT AND COMBINATION THERAPIES FOR TREATMENT OF RESPIRATORY DISORDERS” (priority 2009, published 2012):
Entries after “also recorded” stand apart in the source; their conditions may differ.

Assays:
[1] = test system: OVA evoked asthma in sensitized guinea pigs; test: Airway resistance and dynamic pulmonary compliance after inhalation in OVA sensitized guinea pigs; assay type: in vivo; conditions: for change of Raw and Cdyn at resting state after inhalation: before OVA challenge; for protection against asthma attack by antigen (OVA) challenge: pretreatment by inhalation about three minutes before OVA challenge
Method: Sensitization of animals: Ovalbumin (10 μg/ml) was injected into guinea-pigs subcutaneously and coincidentally with an intraperitoneal injection of B. pertussis vaccine. Identical injection of ovalbumin and adjuvant were made day 15 and 21 days later. On day 28th the animals were examined and used for studies.
Test Methods: The sensitized guinea pigs wer anaethetized. A cannula was inserted into the trachea. A plueral cannula was inserted into pleural space through the chest wall. Airway resistance (Raw) and dynamic pulmonary compliance (Cdyn) were measured by using the signals of intraplueral pressure, airflow and tidal volume.
The animals were restreined in closed chamber and nebulized R-bambuterol or S-bambuterol were inhaled at the dose of 126 μg/kg. After three minutes conditioning, the animals were then challenged with nebulized OVA to evoke asthma. Airway resistance (Raw) and dynamic pulmonary compliance (Cdyn) were measured before and after evoking asthma.

[2] = test system: OVA evoked asthma in sensitized guinea pigs; test: Airway resistance in OVA asthma attack after oral administration in sensitized guinea pigs; assay type: in vivo
Method: Sensitized animals were divided into Saline (control), S-Bambuterol and R-bambuterol groups. R or S bambuterol were administered by both inhalation by oral ([…]). Airway resistance (Raw) and dynamic pulmonary compliance (Cdyn) were measured at resting or during astham challenge by OVA. Animal preparation and experimental methods were similar as described previously.

[3] = test system: OVA evoked asthma in sensitized guinea pigs; test: Drug tolerance to R-bambuterol induced by pretreatment; assay type: in vivo
Method: Animal sensitization and experiment methods were similar as discribed above. Briefly, animals were divided into three groups. R-bambuterol (8 mg/kg) or S-bamburerol (8 mg/kg) or 0.9% NaCL (control) were given orally in equal volum to each group seperatedly once a day for 7 consecutive days in order to induce drug tolerances. The Protection effects of same dosage of R-bambuterol against asthma attack induced by OVA challenge were evaluated by the changes of Airway resistance (Raw) and dynamic pulmonary compliance (Cdyn).

[4] = test system: OVA evoked asthma in sensitized guinea-pigs; test: Relief of antigen-evoked asthma by inhalation after challenge in OVA sensitized guinea-pigs; assay type: in vivo; conditions: nebulized drug inhaled after antigen challenge
Excerpt: In an embodiment of the invention, the ovalbumin (OVA) sensitized guinea-pigs were first challenged with nebulized antigen to evoke asthma, then the animals were allowed to inhale nebulized R-bambuterol or bambuterol. […] In a further embodiment of the invention, the sensitized guinea-pigs were first pretreated with nebulized R-bambuterol or bambuterol by inhalation. After three minutes, the same animals were challenged with nebulized antigen. […] The fast onset of action in the invention can also not be explained by Svenssion's in vitro metabolic study noted above that the dominate product is mono-carbamate bambuterol and litter terbutaline at initial phase., while the major amount of terbutaline will be formed at much later phase. (Svensson et al., 1988).

[5] = cited from earlier work
[6] = test system: histamine evoked asthma in conscious guinea-pigs; test: Time course of anti-asthma effects after oral administration or inhalation; assay type: in vivo; conditions: for No. of collapsed: n=8
Method: The time course of the anti-asthma effects of R-bambuterol (R-BM) and bambuterol (RS-BM) after administered by oral and by inhalation. Test Methods: same as example 1 except the following:
For orally administration, R-Bambuterol hydrochloride or racemic bambuterol hydrochloride at 4 and 8 mg/kg, and vehicle alone, were administered to the guinea pigs orally via a stomach tube. Exposure of treated animals to aerosol histamine (as above) was done at 1, 4 and 12 hours after R-bambuterol or bambuterol treatment. For each experimental group, there were a total of 8 animals with equal number in sex, and no repeated exposure was made for individual experimental animals.
For inhalation, R-Bambuterol hydrochloride or racemic bambuterol hydrochloride at 0.252 and 0.504 mg/kg, and vehicle alone, were nebulized and administered to the guinea pigs by inhalation. Exposure of drug treated animals to aerosol histamine (as above) was done at 1,4 and 12 hours after drug treatment. For each experimental group, there were a total of 8 animals with equal number in sex, and no repeated exposure was made for individual experimental animals.

[7] = test system: bronchial and lung preparations; conditions: in vitro; cited from earlier work
[8] = test system: histamine evoked asthma in conscious guinea-pigs; test: Histamine-evoked asthma in conscious guinea pigs after oral administration; assay type: in vivo, guinea pigs (Dunkin-Hartley strain); conditions: for Latency: no collapse over 360 sec recorded as 360
Method: (§1) Test methods: Guinea pigs (Dunkin-Hartley strain, 200±30 g) were fasted overnight but given water ad libidum. The animals were restrained individually in a glass chamber and exposed to aerosol histamine generated by a nebulizer from a 0.2% aqueous solution of histamine under constant pressure at dose of 0.5 ml/min for a period of 15 sec. The animal was removed from the chamber, and its behavior was monitored. Assign of collapse and the latency time from exposure to collapse were recorded. Only the animals with latency time less than 120 sec, as an indication of sensitive to histamine, were chosen for later experiments. The animals chosen were allowed to recover completely by resting for 24 hours before experiments. R-bambuterol and racemic bambuterol hydrochloride were dissolved in saline and nublized in a nebulizer.
Comparison of the anti-asthma effects of R-bambuterol (R-BM) and bambuterol (RS-BM) administered by oral and by inhalation in conscious guinea pigs. Test methods: same as Example 1.
Study of dose-response: Same as Example 1, except the following: four hours before the exposure to aerosol histamine, animals were randomized into groups (n=8, equal male and female), and given R-bambuterol hydrochloride or racemic bambuterol hydrochloride in doses of 1.0, 2.0, 4.0 and 8.0 mg/kg, and vehicle control, orally via a stomach tube.

[9] = test system: asthma evoked by intravenously administrated histamine; conditions: anesthetized guinea pigs, intravenous histamine; cited from earlier work
[10] = test system: histamine evoked asthma in conscious guinea-pigs; test: Protection against histamine-evoked asthma by inhaled drug in conscious guinea pigs; assay type: in vivo, guinea pigs (Dunkin-Hartley strain); conditions: for Latency: no collapse over 360 sec recorded as 360
Method: as §1
Study of dose-response: One hours before the exposure to aerosol histamine, animals were randomized into groups (n=8, equal sex), and Nublized R-bambuterol hydrochloride or bambuterol hydrochloride in doses of 63, 126, 252 and 504 μg/kg, and vehicle control were inhaled by the animals via a mouth and nasal mask. The numbers of collapsed animal as a result of asthmatic reaction to aerosol histamine were counted, and the latency times were recorded. Both of these parameters were used as quantitative measurements of the protective effects of the treatments on bronchospasm evoked by aerosol histamine.

[11] = pretreated with the labelled substance 8 mg/kg orally once a day 7 days, then R-bambuterol, OVA challenge, n=8
[12] = inhalation (R-BM 252 μg/kg, RS-BM 504 μg/kg), histamine 60 min after
[13] = inhalation (R-BM 252 μg/kg, RS-BM 504 μg/kg), histamine 240 min after
[14] = inhalation (R-BM 252 μg/kg, RS-BM 504 μg/kg), histamine 720 min after
[15] = oral (R-BM 4.0 mg/kg, RS-BM 8.0 mg/kg), histamine 60 min after
[16] = oral (R-BM 4.0 mg/kg, RS-BM 8.0 mg/kg), histamine 240 min after
[17] = oral (R-BM 4.0 mg/kg, RS-BM 8.0 mg/kg), histamine 720 min after
[18] = oral, at maximum effective dose (R-BM 4.0, RS-BM 8.0 mg/Kg)
[19] = inhale, at maximum effective dose (R-BM 0.252, RS-BM 0.505 mg/Kg)

SMILES: CN(C)C(=O)Oc1cc(OC(=O)N(C)C)cc([C@H](O)CNC(C)(C)C)c1 [S-bambuterol]
- change of Raw and Cdyn at resting state after inhalation [1]: increasing airway resistance and reducing pulmonary dynamic compliance; also recorded: significant increase in airway resistance (Raw) and decrease in pulmonary compliance (Cdyn)
- change of Raw and Cdyn at resting state after inhalation ([1]; listed as S-Bambuterol): significant increase in Raw and decrease in Cdyn
- collapse induced by inhalation per se ([1]; inhalation, sensitized guinea pigs): induced a collapes of a guinea pig
- protection against asthma attack by antigen (OVA) challenge [1]: no such protection at all; also recorded: inactive in protectoin against asthma attack
- change of Raw and Cdyn during the asthma attack comparing to control ([1]; treated by inhalation): greater increase in airway resistance (Raw) and decrease in pulmonary compliance (Cdyn)
- change of Raw and Cdyn in resting state ([2]; given orally): little changes in either Raw and Cdyn
- change in Raw / asthmatic response during the asthmatic attack by OVA ([2]; oral): significantly enhance the asthmatic response to OVA challenge than control; also recorded: significant increases in Raw; also recorded: significantly worsen the asthmatic response
- Changes in Airway resistance (Raw) at 4th min after OVA challenge ([2]; pretreated oral 4 m/kg, n=8): 2.40 ± 0.96
- Changes in Airway resistance (Raw) at 5th min after OVA challenge ([2]; pretreated oral 4 m/kg, n=8): 2.41 ± 0.98
- protection effects of R-bambuterol against asthmatic attack after pretreatment ([3]; group pretreated with the labelled substance): significantly reduced
- Changes in Cdyn During asthma [3, 11]: −0.25 ± 0.10
- Changes in Raw During asthma [3, 11]: +0.36 ± 0.23

SMILES: CN(C)C(=O)Oc1cc(OC(=O)N(C)C)cc(C(O)CNC(C)(C)C)c1 (racemic) [bambuterol]
- protection against asthma attack by antigen (OVA) challenge [1]: significant anti-asthma effects
- relief of asthmatic symptoms after inhalation [4]: immediately relieved within matter of tenths of seconds to a couple of minutes
- duration of blood concentration of active parent drug ([5]; after an oral administration): up to 24 hours
- concentration in lungs relative to plasma ([5]; after oral administration (Svensson 1991)): ~20 times
- amount needed relative to terbutaline to reach the same concentration of terbutaline in blood ([5]; given orally, on molar basis): 5 times
- tmax of terbutaline released from bambuterol later than tmax of terbutaline taken orally ([5]; oral (Olsson et al. 1984)): four
- time of maximum concentration (tmax) ([5]; oral): around one
- Latency [6, 12]: 360 ± 0 s
- No. of collapsed [6, 12]: 0/8
- Latency [6, 13]: 360 ± 0 s
- No. of collapsed [6, 13]: 0/8
- Latency [6, 14]: 287 ± 136 s
- No. of collapsed [6, 14]: 2/8
- maximum anti-asthmatic effects by inhalation faster than by oral administration ([6]; inhalation vs oral): 4 h
- Latency [6, 15]: 260 ± 131 s
- No. of collapsed [6, 15]: 3/8
- Latency [6, 16]: 360 ± 0 s
- No. of collapsed [6, 16]: 0/8
- Latency [6, 17]: 360 ± 0 s
- No. of collapsed [6, 17]: 0/8
- relaxation effects [7]: no relaxation effects
- maximum effective dose required by oral (none of the histamine challenged animals collapsed) ([8]; oral): 8 mg/kg
- Latency ([8]; oral 1.0 mg/Kg): 151 ± 130 s
- Latency ([8]; oral 2.0 mg/Kg): 227 ± 143 s
- Latency ([8]; oral 4.0 mg/Kg): 299 ± 113 s
- Latency ([8]; oral 8.0 mg/Kg): 360 ± 0 s
- Animal collapsed (%) [8, 18]: 0%
- Animal collapsed (number/group) [8, 18]: 0/8
- maximum effective dose required by oral (none of the histamine challenged animals collapsed) ([8]; oral, listed as RS-BM): Oral (8.0 ) mg/Kg
- bronchospasmolytic effects when inhaled [9]: inactive and lack bronchospasmolytic effects
- dosage required for maximum anti-asthmatic effects (complete protection against histamine) by inhalation ([10]; inhalation): 512 µg/kg
- maximum effective dose required by inhalation ([10]; inhale): Inhale (0.505) mg/Kg
- Animal collapsed (%) [10, 19]: 0%
- Animal collapsed (number/group) [10, 19]: 0/8
- Latency ([10]; inhaled 63 μg/Kg): 42 ± 9 s
- Latency ([10]; inhaled 126 μg/Kg): 85 ± 112 s
- Latency ([10]; inhaled 252 μg/Kg): 209 ± 162 s
- Latency ([10]; inhaled 504 μg/Kg): 360 ± 0 s
- Oral:Inhale ratio of maximum effective dose ([10]; oral dose vs inhaled dose for maximum anti-asthmatic effect): 16
